Laboratory results published in patent US8754242B2, “Herbicides” (Syngenta Crop Protection LLC, priority 2007, dated 2014).

Experiments:
Assay type in all cases: in vivo
Setaria faberi (SETFA) [1] = test: Test Example 1 pre-emergence herbicidal activity; conditions: Setaria faberi, 480 h, rate 250 g/ha, evaluated 20 days later, read-out: Pre-emergence activity SETFA (100=total damage to plant; 0=no damage to plant)
Procedure: (§1) Monocotyledonous and dicotyledonous test plants were sown in standard soil in pots. After cultivation for one day (pre-emergence) or after 10 days cultivation (post-emergence) under controlled conditions in a glasshouse, the plants were sprayed with an aqueous spray solution derived from the formulation of the technical active ingredient in 0.6 ml acetone and 45 ml formulation solution containing 10.6% Emulsogen EL (Registry number 61791-12-6), 42.2% N-methylpyrrolidone, 42.2% dipropylene glycol monomethyl ether (Registry number 34590-94-8) and 0.2% X-77 (Registry number 11097-66-8). The test plants were then grown in a greenhouse under optimum conditions until, 15 days later for post-emergence and 20 days for pre-emergence, the test was evaluated (100=total damage to plant; 0=no damage to plant).
(§2) Alopecurus myosuroides (ALOMY), Avena fatua (AVEFA), Lolium perenne (LOLPE), Setaria faberi (SETFA), Digitaria sanguinalis (DIGSA), Echinochloa crus-galli (ECHCG)

[2] = tested on: Echinochloa crus-galli (ECHCG); test: Test Example 1 pre-emergence herbicidal activity; conditions: Echinochloa crus-galli, 480 h, rate 250 g/ha, evaluated 20 days later, read-out: Pre-emergence activity ECHCG (100=total damage to plant; 0=no damage to plant)
Procedure: as §1, §2

Lolium perenne (LOLPE) [3] = test: Test Example 1 pre-emergence herbicidal activity; conditions: Lolium perenne, 480 h, rate 250 g/ha, evaluated 20 days later, read-out: Pre-emergence activity LOLPE (100=total damage to plant; 0=no damage to plant)
Procedure: as §1, §2

[4] = tested on: Digitaria sanguinalis (DIGSA); test: Test Example 1 pre-emergence herbicidal activity; conditions: Digitaria sanguinalis, 480 h, rate 250 g/ha, evaluated 20 days later, read-out: Pre-emergence activity DIGSA (100=total damage to plant; 0=no damage to plant)
Procedure: as §1, §2

[5] = tested on: Alopecurus myosuroides (ALOMY); test: Test Example 1 pre-emergence herbicidal activity; conditions: Alopecurus myosuroides, 480 h, rate 250 g/ha, evaluated 20 days later, read-out: Pre-emergence activity ALOMY (100=total damage to plant; 0=no damage to plant)
Procedure: as §1, §2

Avena fatua (AVEFA) [6] = test: Test Example 1 pre-emergence herbicidal activity; conditions: Avena fatua, 480 h, rate 250 g/ha, evaluated 20 days later, read-out: Pre-emergence activity AVEFA (100=total damage to plant; 0=no damage to plant)
Procedure: as §1, §2

Setaria faberi (SETFA) [7] = test: Test Example 1 post-emergence herbicidal activity; conditions: 360 h, rate 125 g/ha, evaluated 15 days later, read-out: Post-emergence activity SETFA (100=total damage to plant; 0=no damage to plant)
Procedure: as §1, §2

[8] = tested on: Echinochloa crus-galli (ECHCG); test: Test Example 1 post-emergence herbicidal activity; conditions: 360 h, rate 125 g/ha, evaluated 15 days later, read-out: Post-emergence activity ECHCG (100=total damage to plant; 0=no damage to plant)
Procedure: as §1, §2

Lolium perenne (LOLPE) [9] = test: Test Example 1 post-emergence herbicidal activity; conditions: 360 h, rate 125 g/ha, evaluated 15 days later, read-out: Post-emergence activity LOLPE (100=total damage to plant; 0=no damage to plant)
Procedure: as §1, §2

[10] = tested on: Digitaria sanguinalis (DIGSA); test: Test Example 1 post-emergence herbicidal activity; conditions: 360 h, rate 125 g/ha, evaluated 15 days later, read-out: Post-emergence activity DIGSA (100=total damage to plant; 0=no damage to plant)
Procedure: as §1, §2

[11] = tested on: Alopecurus myosuroides (ALOMY); test: Test Example 1 post-emergence herbicidal activity; conditions: 360 h, rate 125 g/ha, evaluated 15 days later, read-out: Post-emergence activity ALOMY (100=total damage to plant; 0=no damage to plant)
Procedure: as §1, §2

Avena fatua (AVEFA) [12] = test: Test Example 1 post-emergence herbicidal activity; conditions: 360 h, rate 125 g/ha, evaluated 15 days later, read-out: Post-emergence activity AVEFA (100=total damage to plant; 0=no damage to plant)
Procedure: as §1, §2

Structure (SMILES)	pest or weed control at 250 g/ha (Setaria faberi (SETFA) [1]) [%]	pest or weed control at 250 g/ha [2] [%]	pest or weed control at 250 g/ha (Lolium perenne (LOLPE) [3]) [%]	pest or weed control at 250 g/ha [4] [%]	pest or weed control at 250 g/ha [5] [%]	pest or weed control at 250 g/ha (Avena fatua (AVEFA) [6]) [%]	pest or weed control at 125 g/ha (Setaria faberi (SETFA) [7]) [%]	pest or weed control at 125 g/ha [8] [%]	pest or weed control at 125 g/ha (Lolium perenne (LOLPE) [9]) [%]	pest or weed control at 125 g/ha [10] [%]	pest or weed control at 125 g/ha [11] [%]	pest or weed control at 125 g/ha (Avena fatua (AVEFA) [12]) [%]
CCOC(=O)C1=NOC2C1[C@@H]1O[C@H]2[C@H]2C(O)=C(c3c(CC)cc(C)cc3CC)C(=O)[C@H]21 (mixture of isomers) [Example T16]	10	0	0	0	0	10	0	30	50	0	40	20
CCc1cc(C)cc(CC)c1C1=C(OC(=O)OCC(C)C)[C@H]2[C@@H](C1=O)[C@@H]1CC[C@H]2O1 (racemic) [Example P24]	100	100	100	100	90	90	100	100			100	
Cc1cc(C)c(C2=C(OC(=O)C(C)(C)C)[C@H]3[C@@H](C2=O)[C@@H]2CC[C@H]3O2)c(C)c1 (racemic) [Example P33, (1RS,2SR,6RS,7SR)-5-oxo-4-(2,4,6-trimethylphenyl)-10-oxatricyclo[5.2.1.0^2,6]dec-3-en-3-yl 2,2-dimethylpropionate]	80		100	80	90	70	70	90	80	70	80	70
COC[C@]12CC[C@H](O1)[C@@H]1C(=O)C(c3c(C)cc(C)cc3C)=C(OC(=O)C3CC3)[C@@H]12 (single isomer, unassigned) [Example P30]	80	90	90	80	80	80	80	100	70	90	80	
CSC[C@]12CC[C@H](O1)[C@@H]1C(=O)C(c3c(C)cc(C)cc3C)=C(O)[C@@H]12 [Example T53]	10	0	10	10	10	20						
CCc1cc(C)cc(CC)c1C1=C(O)[C@@H]2[C@@H]3O[C@@H](C[C@H]3c3cccc(Cl)c3)[C@@H]2C1=O [Example T148]	60	80	70	70	60	50						
CCc1cc(C)cc(CC)c1C1=C(O)[C@@H]2[C@@H]3O[C@@H](C[C@H]3c3cccc(F)c3C#N)[C@@H]2C1=O [Example T157]	0	50	70	0	30		60	100	40	60	60	60
